Legend:
MCF-7 (breast carcinoma) = experiment: MTT in vitro growth inhibition assay, MCF-7; type: cell-based; settings: Homo sapiens; for inhibition at 25 µM: MCF7, 25 µM of drug, 72 h, read-out: Percentage of Cell Growth Inhibition MCF-7; for GI50: MCF7, 72 h drug exposure
Source text: (§1) With the desired bolinaquinone analogues 12–43 in hand, we examined their cytotoxicity against a panel of 11 tumour cell lines: HT29 (colon carcinoma), U87 and SJ-G2 (glioblastoma), MCF-7 (breast carcinoma), A2780 (ovarian carcinoma), H460 (lung carcinoma), A431 (skin carcinoma), Du145 (prostate carcinoma), BE2-C (neuroblastoma), MIA (pancreatic carcinoma), SMA (spontaneous murine astrocytoma) and a normal breast cell line (MCF10A). The inclusion of the MCF-10A cell line allowed a determination of a crude measure of relative toxicity while noting that the ultimate arbiter of toxicity requires in vivo evaluation. All analogues were initially screened at a 25 µM drug concentration.
(§2) Stock solutions were prepared as follows and stored at −20°C: drugs were stored as 40 mM solutions in DMSO. All cell lines were cultured in a humidified atmosphere 5% CO2 at 37°C. The cancer cell lines were maintained in Dulbecco's modified Eagle's medium (DMEM) (Trace Biosciences, Australia) supplemented with 10% fetal bovine serum, 10 mM sodium bicarbonate, penicillin (100 IU ml^−1), streptomycin (100 µg ml^−1) and glutamine (4 mM). The non-cancer MCF10A cell line was cultured in DMEM:F12 (1 : 1) cell culture media, 5% heat-inactivated horse serum, supplemented with penicillin (50 IU ml^−1), streptomycin (50 µg ml^−1), 20 mM Hepes, L-glutamine (2 mM), epidermal growth factor (20 ng ml^−1), hydrocortisone (500 ng ml^−1), cholera toxin (100 ng ml^−1) and insulin (10 ug ml^−1).
(§3) Cells in logarithmic growth were transferred to 96-well plates. Cytotoxicity was determined by plating cells in duplicate in 100 µl medium at a density of 2500–4000 cells per well. On day 0 (24 h after plating), when the cells were in logarithmic growth, 100 μl of medium with or without the test agent was added to each well. After 72 h, drug exposure growth inhibitory effects were evaluated using the MTT (3-[4,5-dimethylthiazol-2-yl]-2,5-diphenyl-tetrazolium bromide) assay and the absorbance read at 540 nm. Percentage growth inhibition was determined at a fixed drug concentration of 25 µM. A value of 100% is indicative of complete cell growth inhibition. Those analogues showing appreciable percentage growth inhibition underwent further dose–response analysis allowing for the calculation of a GI50 value. This value is the drug concentration at which cell growth is 50% inhibited based on the difference between the optical density values on day 0 and those at the end of drug exposure.

[1] = test system: Du145 (prostate carcinoma); experiment: MTT in vitro growth inhibition assay, Du145; type: cell-based; settings: Homo sapiens; for inhibition at 25 µM: DU-145, 25 µM of drug, 72 h, read-out: Percentage of Cell Growth Inhibition Du145; for GI50: DU-145, 72 h, 72 h drug exposure
Source text: as §1, §2, §3

[2] = test system: SMA (spontaneous murine astrocytoma); experiment: MTT in vitro growth inhibition assay, SMA; type: cell-based; settings: Mus musculus; for inhibition at 25 µM: 25 µM of drug, 72 h, read-out: Percentage of Cell Growth Inhibition SMA; for GI50: 72 h drug exposure
Source text: as §1, §2, §3

HT29 (colon carcinoma) = experiment: MTT in vitro growth inhibition assay, HT29; type: cell-based; settings: Homo sapiens; for inhibition at 25 µM: HT-29, 25 µM of drug, 72 h, read-out: Percentage of Cell Growth Inhibition HT29; for GI50: HT-29, 72 h drug exposure
Source text: as §1, §2, §3

U87 (glioblastoma) = experiment: MTT in vitro growth inhibition assay, U87; type: cell-based; settings: for inhibition at 25 µM: 25 µM of drug, 72 h, read-out: Percentage of Cell Growth Inhibition U87; for GI50: 72 h drug exposure
Source text: as §1, §2, §3

[3] = test system: MIA (pancreatic carcinoma); experiment: MTT in vitro growth inhibition assay, MIA; type: cell-based; settings: for inhibition at 25 µM: 25 µM of drug, 72 h, read-out: Percentage of Cell Growth Inhibition MIA; for GI50: 72 h drug exposure
Source text: as §1, §2, §3

SJ-G2 (glioblastoma) = experiment: MTT in vitro growth inhibition assay, SJ-G2; type: cell-based; settings: for inhibition at 25 µM: 25 µM of drug, 72 h, read-out: Percentage of Cell Growth Inhibition SJ-G2; for GI50: 72 h drug exposure
Source text: as §1, §2, §3

[4] = test system: MCF10A (normal breast cell line); experiment: MTT in vitro growth inhibition assay, MCF10A; type: cell-based; settings: Homo sapiens, MCF-10A; for inhibition at 25 µM: 25 µM of drug, 72 h, read-out: Percentage of Cell Growth Inhibition MCF10A; for GI50: normal breast cell line, 72 h drug exposure
Source text: as §1, §2, §3

H460 (lung carcinoma) = experiment: MTT in vitro growth inhibition assay, H460; type: cell-based; settings: Homo sapiens; for inhibition at 25 µM: NCI-H460, 25 µM of drug, 72 h, read-out: Percentage of Cell Growth Inhibition H460; for GI50: NCI-H460, 72 h drug exposure
Source text: as §1, §2, §3

BE2-C (neuroblastoma) = experiment: MTT in vitro growth inhibition assay, BE2-C; type: cell-based; settings: Homo sapiens, BE(2)-C, 72 h; for inhibition at 25 µM: 25 µM of drug, read-out: Percentage of Cell Growth Inhibition BE2-C; for GI50: 72 h drug exposure
Source text: as §1, §2, §3

A431 (skin carcinoma) = experiment: MTT in vitro growth inhibition assay, A431; type: cell-based; settings: Homo sapiens; for inhibition at 25 µM: A-431, 25 µM of drug, 72 h, read-out: Percentage of Cell Growth Inhibition A431; for GI50: A-431, 72 h, 72 h drug exposure
Source text: as §1, §2, §3

[5] = test system: A2780 (ovarian carcinoma); experiment: MTT in vitro growth inhibition assay, A2780; type: cell-based; settings: Homo sapiens; for inhibition at 25 µM: 25 µM of drug, 72 h, read-out: Percentage of Cell Growth Inhibition A2780; for GI50: 72 h drug exposure
Source text: as §1, §2, §3

Row | Structure (SMILES) | inhibition at 25 µM (MCF-7 (breast carcinoma)) [%] | GI50 (MCF-7 (breast carcinoma)) [µM] | inhibition at 25 µM [1] [%] | GI50 [1] [µM] | inhibition at 25 µM [2] [%] | GI50 [2] [µM] | inhibition at 25 µM (HT29 (colon carcinoma)) [%] | GI50 (HT29 (colon carcinoma)) [µM] | inhibition at 25 µM (U87 (glioblastoma)) [%] | GI50 (U87 (glioblastoma)) [µM] | inhibition at 25 µM [3] [%] | GI50 [3] [µM] | inhibition at 25 µM (SJ-G2 (glioblastoma)) [%] | GI50 (SJ-G2 (glioblastoma)) [µM] | inhibition at 25 µM [4] [%] | inhibition at 25 µM (H460 (lung carcinoma)) [%] | inhibition at 25 µM (BE2-C (neuroblastoma)) [%] | inhibition at 25 µM (A431 (skin carcinoma)) [%] | melting point [°C] | inhibition at 25 µM [5] [%] | other results
1 | CCCCc1ccc(C2=C(OC)C(=O)C(c3ccc4ccccc4c3)=C(OC)C2=O)cc1 [compound 35, 2-(4-Butylphenyl)-3,6-dimethoxy-5-(naphthalene-3-yl)cyclohexa-2,5-diene-1,4-dione] | 87 ± 1 | 10 ± 0.6 | 56 ± 2 | 19 ± 1 | 79 ± 5 | 8.2 ± 0.8 | 59 ± 3 | 21 ± 2.6 | 38 ± 2 | 42 ± 2.8 | 61 ± 2 | 18 ± 1.2 | 67 ± 4 | 16 ± 2.2 | 47 ± 5 | 61 ± 3 | 61 ± 2 | 49 ± 3 | 134 to 136 | 66 ± 1 | GI50 [4]: 26 ± 4.8 µM; GI50 (H460 (lung carcinoma)): 19 ± 0.6 µM; GI50 (BE2-C (neuroblastoma)): 23 ± 3.2 µM; GI50 (A431 (skin carcinoma)): 26 ± 4.8 µM; GI50 [5]: 14 ± 2 µM
2 | COC1=C(c2ccc3ccccc3c2)C(=O)C(OC)=C(c2ccccc2-c2ccccc2)C1=O [compound 36, 2,5-Dimethoxy-3-(biaryl-2-yl)-6-(naphthalene-3-yl)cyclohexa-2,5-diene-1,4-dione] | > 100 | 5.1 ± 0.5 | 51 ± 3 | 21 ± 0.2 | 84 ± 7 | 10 ± 0.3 | > 100 | 11 ± 0.9 | 57 ± 2 | 20 ± 0.9 | 78 ± 2 | 12 ± 0.7 | 78 ± 5 | 13 ± 1.5 | 77 ± 4 | 65 ± 3 | > 100 | 78 ± 2 | 113 to 115 | 87 ± 2 | GI50 [4]: 15 ± 2.2 µM; GI50 (H460 (lung carcinoma)): 18 ± 2.3 µM; GI50 (BE2-C (neuroblastoma)): 8.7 ± 0.7 µM; GI50 (A431 (skin carcinoma)): 15 ± 1.5 µM; GI50 [5]: 9 ± 0.6 µM
3 | COC1=C(c2cccc(-c3ccccc3)c2)C(=O)C(OC)=C(c2ccc3ccccc3c2)C1=O [compound 37, 2,5-Dimethoxy-3-(biaryl-3-yl)-6-(naphthalene-3-yl)cyclohexa-2,5-diene-1,4-dione] | 88 ± 4 | 10 ± 2.6 | > 100 | 9.8 ± 0.7 | 85 ± 3 | 13 ± 1 | > 100 | 5.4 ± 0.4 | 74 ± 3 | 14 ± 1 | 91 ± 2 | 8.3 ± 1 | > 100 | 9.3 ± 1.2 | > 100 | 95 ± 1 | > 100 | > 100 | 119 to 121 | 76 ± 3 | GI50 [4]: 11 ± 1.3 µM; GI50 (H460 (lung carcinoma)): 11 ± 0.3 µM; GI50 (BE2-C (neuroblastoma)): 6.7 ± 0.3 µM; GI50 (A431 (skin carcinoma)): 6 ± 0.9 µM; GI50 [5]: 11 ± 0.9 µM
4 | CCCNC1=CC(=O)C(NCCC)=C(c2ccc(C)cc2)C1=O [compound 38, 2,5-Bis(propylamino)3-p-tolylcyclohexa-2,5-diene-1,4-dione] | 57 ± 3 |  | 56 ± 2 |  | 73 ± 1 |  | 59 ± 4 |  | 67 ± 5 |  | 67 ± 3 |  | 50 ± 2 |  | 69 ± 3 | 51 ± 2 | 28 ± 12 | 81 ± 0.3 | 166 to 168 | 63 ± 4 | 
5 | CCCNC1=CC(=O)C(NCCC)=C(c2cccc3ccccc23)C1=O [compound 39, 3-(Naphthalene-1-yl)-2,5-bis-(propylamino)cyclohexa-2,5-diene-1,4-dione] | 69 ± 1 |  | 75 ± 1 |  | 54 ± 11 |  | 76 ± 2 |  | 75 ± 1 |  | 69 ± 2 |  | 59 ± 1 |  | 78 ± 1 | 59 ± 3 | 73 ± 3 | 76 ± 3 | 134 to 137 | 78 ± 2 | 
6 | CCCNC1=C(c2ccccc2)C(=O)C(NCCC)=C(c2cccc3ccccc23)C1=O [compound 42, 2-(Naphthalene-1-yl)-5-phenyl-3,6-bis-(propylamino)cyclohexa-2,5-diene-1,4-dione] | 77 ± 4 |  | 70 ± 3 |  | 56 ± 9 |  | 71 ± 3 |  | 69 ± 4 |  | 76 ± 2 |  | 52 ± 1 |  | 76 ± 1 | 63 ± 3 | 56 ± 4 | 81 ± 1 | 226 to 228 | 79 ± 1 | 
